Source: EP4813463A2, “TYK2 INHIBITORS AND COMPOSITIONS AND METHODS THEREOF” (Lynk Pharmaceuticals Co. Ltd., priority 2023, dated 2024)
pIC50: −log10 of the molar value. Read-outs that look alike come from different tables or passages of the source.

How the values were obtained:
[1] = target: T1, TYK2-JH2 domain (Homo sapiens, UniProt P29597); assay: Binding activity test for JH2 domain of TYK2 (Tb-antibody/tracer FRET)
T1 construct: JAK1-JH2 domain or TYK2-JH2 domain enzyme in assay buffer
In short: (§1)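 IC50 values (nM) come from TR-FRET readings taken after a 25°C incubation followed by overnight at 4°C. Each well held JH2 domain protein, Tb-antibody, tracer and test compound titrated in 11 threefold steps, with DMSO high and low controls.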

[2] = target: T2, JAK1-JH2 domain (Homo sapiens, UniProt P23458); assay: Binding activity test for JH2 domain of JAK1 (Tb-antibody/tracer FRET)
T2 construct: JAK1-JH2 domain or TYK2-JH2 domain enzyme in assay buffer
T2 sequence (P23458 583-855 limits assumed): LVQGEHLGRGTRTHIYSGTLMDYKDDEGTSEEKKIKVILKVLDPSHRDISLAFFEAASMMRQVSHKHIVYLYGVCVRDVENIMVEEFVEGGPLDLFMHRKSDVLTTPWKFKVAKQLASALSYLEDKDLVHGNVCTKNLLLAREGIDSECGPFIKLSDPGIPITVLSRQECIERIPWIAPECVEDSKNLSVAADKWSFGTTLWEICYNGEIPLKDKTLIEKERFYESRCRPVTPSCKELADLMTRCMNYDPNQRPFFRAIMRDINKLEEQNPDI
In short: as §1

[3] = system: Ba/F3-FL-TYK2-P760L cells; assay: Anti-proliferative assay in engineered Ba/F3 cells (Cell-Titer Glo, 72 h); assay type: cell-based; settings: concentration that causes 50% growth inhibition, read-out: Baf3-FL-T2P760L
In short: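 IC50 from luminescent ATP viability after 72 h compound exposure (37 °C, 5% CO2), % inhibition normalised to DMSO-treated cells minus medium blank. IL-3-free Ba/F3-FL-TYK2-P760L (Tel-JAK fusion) cells in 10% FBS RPMI-1640 received 9 three-fold doses, top 20 µM, 0.1% DMSO.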

[4] = JH2 domain enzyme; 60 min at 25°C, then 4°C overnight; read-out: TYK2 JH2 Binding IC50
[5] = ratio of JAK1 JH2 to TYK2 JH2 binding IC50
[6] = JH2 domain enzyme; 60 min at 25°C, then 4°C overnight; read-out: JAK1 JH2 Binding IC50
[7] = Mus musculus, BaF3, 72 h, 72 h compound treatment
[8] = read-out: TYK2 JH2 Binding IC50; JH2 domain enzyme; 60 min at 25°C, then 4°C overnight
[9] = read-out: JAK1 JH2 Binding IC50; JH2 domain enzyme; 60 min at 25°C, then 4°C overnight
[10] = Mus musculus, BaF3, 72 h compound treatment

T1 sequence (P29597 589-875 limits assumed): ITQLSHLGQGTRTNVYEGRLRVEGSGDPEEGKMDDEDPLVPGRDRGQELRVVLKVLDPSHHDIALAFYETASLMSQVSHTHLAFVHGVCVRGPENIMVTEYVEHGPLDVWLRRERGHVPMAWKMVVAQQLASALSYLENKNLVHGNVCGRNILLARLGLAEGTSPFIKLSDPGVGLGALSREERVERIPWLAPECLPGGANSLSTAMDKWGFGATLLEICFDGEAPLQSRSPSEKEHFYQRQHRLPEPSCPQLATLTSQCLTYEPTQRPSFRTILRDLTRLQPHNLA

| SMILES | pIC50 [1, 4] | JAK1/TYK2 selectivity [1, 5] | pIC50 [2, 6] | pIC50 [3, 7] | pIC50 [1, 8] | pIC50 [2, 9] | pIC50 [3, 10] | pIC50 ([3]; 72 h compound treatment) |
| --- | --- | --- | --- | --- | --- | --- | --- | --- |
| [2H]C([2H])([2H])NC(=O)c1cnc(NC(=O)C2CC2)cc1Nc1cnn2ccc(C(O)C(F)(F)F)cc12 (stereo not shown) [Example 41, 6-(Cyclopropanecarboxamido)-N-(methyl-d3)-4-((5-(2,2,2-trifluoro-1-hydroxyethyl)pyrazolo[1,5-a]pyridin-3-yl)amino)nicotinamide] | 7.33 | >6.37 | < 6.53 | < 5.30 | – | – | – | – |
| COc1c([C@H](OC)C(F)(F)F)ccn2ncc(Nc3cc(NC(=O)C4CC4)ncc3OCC#N)c12 [Example 95, (S)-N-(5-(cyanomethoxy)-4-((4-methoxy-5-(2,2,2-trifluoro-1-methoxyethyl)pyrazolo[1,5-a]pyridin-3-yl)amino)pyridin-2-yl)cyclopropanecarboxamide] | 7.17 | >4.37 | < 6.53 | < 5.30 | – | – | – | – |
| CCOC(=O)c1cnc(NC(=O)C2CC2)cc1Nc1cnn2ccc([C@H](OC)C(F)(F)F)c(OC)c12 [Example 88, Ethyl (S)-6-(cyclopropanecarboxamido)-4-((4-methoxy-5-(2,2,2-trifluoro-1-methoxyethyl)pyrazolo[1,5-a]pyridin-3-yl)amino)nicotinate] | 8.77 | >175.18 | < 6.53 | 6.14 | – | – | – | – |
| COc1c([C@H](OC)C(F)(F)F)ccn2ncc(Nc3cc(NC(=O)C4CC4)ncc3C(O)CC#N)c12 (stereo partly drawn) [Example 92, N-(5-(2-cyano-1-hydroxyethyl)-4-((4-methoxy-5-((S)-2,2,2-trifluoro-1-methoxyethyl)pyrazolo[1,5-a]pyridin-3-yl)amino)pyridin-2-yl)cyclopropanecarboxamide] | 7.58 | 3.00 | 7.10 | 6.06 | – | – | – | – |
| [2H]C([2H])([2H])NC(=O)c1cnc(Nc2ccc(F)cn2)cc1Nc1nn(C)c2ccc([C@H](OC)C(F)(F)F)c(OC)c12 [Example 171, (S)-6-((5-fluoropyridin-2-yl)amino)-4-((4-methoxy-1-methyl-5-(2,2,2-trifluoro-1-methoxyethyl)-1H-indazol-3-yl)amino)-N-(methyl-d3)nicotinamide] | 9.77 | 99.17 | 7.77 | 8.99 | – | – | – | – |
| COC(=O)c1c(Nc2nn(C)c3ccc(C(OC)C(F)(F)F)c(OC)c23)cc(NC(=O)C2CC2)nc1N (stereo not shown) [Example 96, Methyl 2-amino-6-(cyclopropanecarboxamido)-4-((4-methoxy-1-methyl-5-(2,2,2-trifluoro-1-methoxyethyl)-1H-indazol-3-yl)amino) nicotinate] | – | >3.19 | – | – | 7.03 | < 6.53 | 5.52 | – |
| [2H]C([2H])([2H])NC(=O)c1nnc(NC(=O)C2CC23CC3)cc1Nc1cnn2ccc([C@H](O)C(F)(F)F)c(OC)c12 (single isomer, unassigned) [Example 82B, 4-((4-Methoxy-5-((S)-2,2,2-trifluoro-1-hydroxyethyl)pyrazolo[1,5-a]pyridin-3-yl)amino)-N-(methyl-d3)-6-((S*)-spiro[2.2]pentane-1-carboxamido)pyridazine-3-carboxamide] | 9.64 | 27.48 | 8.20 | – | – | – | – | 7.57 |
| [2H]C([2H])([2H])NC(=O)c1cnc(NC(=O)[C@@H]2C[C@@H]2F)cc1Nc1cnn2cnc(C(O)C(F)(F)F)c(OC)c12 (stereo partly shown) [Example 39, 6-((18,25)-2-fluorocyclopropane-1-carboxamido)-4-((4-methoxy-5-(2,2,2-trifluoro-1-hydroxyethyl)pyrazolo[1,5-c]pyrimidin-3-yl)amino)-N-(methyl-d3)nicotinamide] | – | >532.1 | – | – | 9.25 | < 6.53 | 6.46 | – |
| COCCn1ccc(Nc2cc(Nc3nn(C)c4ccc([C@H](OC)C(F)(F)F)c(OC)c34)c(C(=O)OC)cn2)n1 [Example 181, Methyl (S)-4-((4-methoxy-1-methyl-5-(2,2,2-trifluoro-1-methoxyethyl)-1H-indazol-3-yl)amino)-6-((1-(2-methoxyethyl)-1H-pyrazol-3-yl)amino)nicotinate] | 9.51 | >966 | < 6.53 | 7.45 | – | – | – | – |
| COC(=O)c1nnc(NC(=O)C2CC2)cc1Nc1cccc(-c2ncn(C)n2)c1OC [Example 85, Methyl 6-(cyclopropanecarboxamido)-4-((2-methoxy-3-(1-methyl-1H-1,2,4-triazol-3-yl)phenyl)amino)pyridazine-3-carboxylate] | 6.70 | >1.51 | < 6.53 | < 5.30 | – | – | – | – |
| [2H]C([2H])([2H])n1nc(Nc2cc(NC(=O)C3CC3)ncc2C(=O)OC)c2c(OC)c([C@@H](OC)C(F)(F)F)ccc21 [Example 52B, Methyl (R)-6-(cyclopropanecarboxamido)-4-((4-methoxy-1-(methyl-d3)-5-(2,2,2-trifluoro-1-methoxyethyl)-1H-indazol-3-yl)amino)nicotinate] | 9.21 | >484.60 | < 6.53 | 6.92 | – | – | – | – |
| [2H]C([2H])([2H])O[C@H](c1ccc2c(c(Nc3cc(NC(=O)C4CC4)ncc3C(=O)OC)nn2C)c1OC)C(F)(F)F [Example 50A, Methyl (R)-6-(cyclopropanecarboxamido)-4-((4-methoxy-1-methyl-5-(2,2,2-trifluoro-1-(methoxy-d3)ethyl)-1H-indazol-3-yl)amino)nicotinate] | 8.98 | >287.30 | < 6.53 | 6.88 | – | – | – | – |
| CCC(=O)c1cnc(NC(=O)C2CC2)cc1Nc1nn(C)c2ccc([C@H](O)C(F)(F)F)c(OC)c12 [Example 140, (S)-N-(4-((4-Methoxy-1-methyl-5-(2,2,2-trifluoro-1-hydroxyethyl)-1H-indazol-3-yl)amino)-5-propionylpyridin-2-yl)cyclopropanecarboxamide] | 10.21 | 71.43 | 8.36 | 9.33 | – | – | – | – |
| COC(=O)c1cnc(Nc2ccc(F)cn2)cc1Nc1nn(C)c2ccc([C@H](OC)C(F)(F)F)c(OC)c12 [Example 169, Methyl (S)-6-((5-fluoropyridin-2-yl)amino)-4-((4-methoxy-1-methyl-5-(2,2,2-trifluoro-1-methoxyethyl)-1H-indazol-3-yl)amino)nicotinate] | 9.72 | >1571 | < 6.53 | 8.08 | – | – | – | – |
| CNC(=O)c1nnc(NC(=O)C2CC2)cc1Nc1nc2ccccn2n1 [Example 185, 4-([1,2,4]Triazolo[1,5-a]pyridin-2-ylamino)-6-(cyclopropanecarboxamido)-N-methylpyridazine-3-carboxamide] | 9.25 | 16.30 | 8.04 | 7.05 | – | – | – | – |
| [2H]C([2H])([2H])NC(=O)c1nnc(NC(=O)C2CC23CC3)cc1Nc1cnn2ccc([C@H](O)C(F)(F)F)c(OC)c12 (single isomer, unassigned) [Example 82A, 4-((4-Methoxy-5-((S)-2,2,2-trifluoro-1-hydroxyethyl)pyrazolo[1,5-a]pyridin-3-yl)amino)-N-(methyl-d3)-6-((R*)-spiro[2.2]pentane-1-carboxamido)pyridazine-3-carboxamide] | 9.68 | 38.29 | 8.10 | 7.46 | – | – | – | – |
| [2H]C([2H])([2H])NC(=O)c1nnc(NC(=O)C2CC2)cc1Nc1nn(C)c2ccc([C@@H](OC)C(F)(F)F)c(OC)c12 [Example 51A, (R)-6-(cyclopropanecarboxamido)-4-((4-methoxy-1-methyl-5-(2,2,2-trifluoro-1-methoxyethyl)-1H-indazol-3-yl)amino)-N-(methyl-d3)pyridazine-3-carboxamide] | 9.81 | 40.84 | 8.20 | 7.91 | – | – | – | – |
| [2H]C([2H])([2H])NC(=O)c1nnc(NC(=O)C2CC2)cc1Nc1cccc(-c2ncn(C)n2)c1C(C)O (stereo not shown) [Example 89, 6-(Cyclopropanecarboxamido)-4-((2-(1-hydroxyethyl)-3-(1-methyl-1H-1,2,4-triazol-3-yl)phenyl)amino)-N-(methyl-d3)pyridazine-3-carboxamide] | < 6.53 | – | < 6.53 | < 5.30 | – | – | – | – |
| COc1c(-c2cnn(C)n2)ccnc1Nc1cc(NC(=O)C2CC2)ncc1C(C)(F)F [Example 177, N-(5-(1,1-Difluoroethyl)-4-((3-methoxy-4-(2-methyl-2H-1,2,3-triazol-4-yl)pyridin-2-yl)amino)pyridin-2-yl)cyclopropanecarboxamide] | 9.13 | 8.50 | 8.20 | 7.82 | – | – | – | – |
| COc1c([C@H](OC)C(F)(F)F)ccc2c1c(Nc1cc(NC(=O)C3CC3)ncc1C(=O)O)nn2C [Example 77, (S)-6-(Cyclopropanecarboxamido)-4-((4-methoxy-1-methyl-5-(2,2,2-trifluoro-1-methoxyethyl)-1H-indazol-3-yl)amino)nicotinic acid] | 10.10 | 2307.96 | 6.73 | < 6.00 | – | – | – | – |
